Columns and labels:
[1] = tested on: sourgrass; test: Test D sourgrass; format: in vivo, Trichachne insularis; settings: Preemergence, 0 to 100 scale
Method in brief: (§1)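 Values are visual plant-response ratings (0 no injury, 100 complete control) recorded 14 to 21 days after herbicide treatment, using a non-phytotoxic solvent mixture containing surfactant. Preemergence applications went to the surface of pots holding freshly sown seed in sandy loam.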

[2] = tested on: rape; test: Test E rape; format: in vivo, Brassica napus; settings: Preemergence
[3] = tested on: chickweed; test: Test E chickweed; format: in vivo, Stellaria media; settings: Preemergence
[4] = tested on: black nightshade; test: Test E black nightshade; format: in vivo, Solanum nigra; settings: Preemergence
[5] = tested on: kochia; test: Test E kochia; format: in vivo, Kochia scoparia; settings: Postemergence
Procedure: (§2) Compounds evaluated in this test were formulated in a non-phytotoxic solvent mixture which included a surfactant and applied to plants that were in the 1- to 4-leaf stage (postemergence application). A mixture of sandy loam soil and greenhouse potting mix in a 60:40 ratio was used for the postemergence test.
(§3) Plantings of these crops and weed species were adjusted to produce plants of appropriate size for the postemergence test. All plant species were grown using normal greenhouse practices. Crop and weed species include annual bluegrass (Poa annua), blackgrass (Alopecurus myosuroides), black nightshade (Solanum nigra), chickweed (Stellaria media), common poppy (Papaver rhoeas), deadnettle (Lamium amplexicaule), downy brome (Bromus tectorum), field violet (Viola arvensis), galium (Galium aparine), green foxtail (Setaria viridis), Italian ryegrass (Lolium multiflorum), jointed goatgrass (Aegilops cylindrica), kochia (Kochia scoparia), lambsquarters (Chenopodium album), littleseed canarygrass (Phalaris minor), rape (Brassica napus), redroot pigweed (Amaranthus retroflexus), Russian thistle (Salsola kali), scentless chamomile (Matricaria inodora), spring barley (Hordeum vulgare), sugar beet (Beta vulgaris), sunflower (Helianthus annuus), ivyleaf speedwell (Veronica hederaefolia), spring wheat (Triticum aestivum), winter wheat (Triticum aestivum), wild buckwheat (Polygonum convolvulus), wild mustard (Sinapis arvensis), wild oat (Avena fatua), windgrass (Apera spica-venti) and winter barley (Hordeum vulgare).
(§4) Treated plants and untreated controls were maintained in a greenhouse for approximately 21 to 28 days, after which all treated plants were compared to untreated controls and visually evaluated. […] A dash response (-) means no test result.

[6] = tested on: common poppy; test: Test E common poppy; format: in vivo, Papaver rhoeas; settings: Postemergence; for Plant response rating, Comnion poppy: Rate 125 g/ha
Procedure: as §2, §3, §4

[7] = tested on: annual bluegrass; test: Test E annual bluegrass; format: in vivo, Poa annua; settings: Postemergence
Method in brief: (§5)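 Compounds formulated in non-phytotoxic solvent mixture with surfactant; for postemergence, sprayed on plants at 1- to 4-leaf stage grown in 60:40 sandy loam/greenhouse potting mix. Kept in greenhouse ~21 to 28 days, then visually rated against untreated controls.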

[8] = tested on: spring wheat; test: Test E spring wheat; format: in vivo, Triticum aestivum; settings: Postemergence
Procedure: as §2, §3, §4

[9] = tested on: sunflower; test: Test E sunflower; format: in vivo, Helianthus annuus; settings: Preemergence
[10] = tested on: sugar beet; test: Test E sugar beet; format: in vivo, Beta vulgaris; settings: Postemergence
Method in brief: as §5

[11] = tested on: ladysthumb smartweed; test: Test C postemergence ladysthumb smartweed; format: in vivo, Polygonum persicaria; settings: 0 to 100 scale, 0 no effect, 100 complete control
Procedure: as §2, with “grown for various periods of time before treatment” for “in the 1- to 4-leaf stage”
Plantings of these crops and weed species were adjusted to produce plants of appropriate size for the postemergence test. All plant species were grown using normal greenhouse practices. […]
Treated plants and untreated controls were maintained in a greenhouse for approximately 14, to 21 days, after which all treated plants were compared to untreated controls and visually evaluated. […]

[12] = tested on: spring barley; test: Test E spring barley; format: in vivo, Hordeum vulgare; settings: Postemergence
Procedure: as §2, §3, §4

[13] = tested on: cocklebur; test: Test C postemergence cocklebur; format: in vivo, Xanthium strumarium; settings: 0 to 100 scale, 0 no effect, 100 complete control
Procedure: as §2, with “grown for various periods of time before treatment” for “in the 1- to 4-leaf stage”
Plantings of these crops and weed species were adjusted to produce plants of appropriate size for the postemergence test. All plant species were grown using normal greenhouse practices. Crop and weed species include arrowleaf sida (Sida rhombifolia), barnyardgrass (Echinochloa crus-galli), cocklebur (Xanthium strumarium), common ragweed (Ambrosia elatior), corn (Zea mays), cotton (Gossypium hirsutum), eastern black nightshade (Solanum ptycanthum), fall panicum (Panicum dichotomiflorum), field bindweed (Convolvulus arvensis), giant foxtail (Setaria faberii), hairy beggarticks (Bidens pilosa), ivyleaf morningglory (Ipomoea hederacea), johnsongrass (Sorghum halepense), ladysthumb smartweed (Polygonum persicaria), lambsquarters (Chenopodium album), large crabgrass (Digitaria sanguinalis), purple nutsedge (Cyperus rotundus), redroot pigweed (Amaranthus retroflexus), soybean (Glycine max), surinam grass (Brachiaria decumbens), velvetleaf (Abutilon theophrasti) and wild poinsettia (Euphorbia heterophylla).
Treated plants and untreated controls were maintained in a greenhouse for approximately 14, to 21 days, after which all treated plants were compared to untreated controls and visually evaluated. Plant response ratings, summarized in Table C, were based upon a 0 to 100 scale where 0 was no effect and 100 was complete control. A dash response (−) means no test result.

[14] = tested on: Green foxtail; test: Test D green foxtail; format: in vivo; settings: Preemergence, 0 to 100 scale
Method in brief: as §1

[15] = tested on: scentless chamomile; test: Test E scentless chamomile; format: in vivo, Matricaria inodora; settings: Preemergence
[16] = tested on: littleseed canarygrass; test: Test E littleseed canarygrass; format: in vivo, Phalaris minor; settings: Postemergence
Procedure: as §2, §3, §4

[17] = Rate 62 g/ha, 0 to 100 scale, 0 no effect, 100 complete control
[18] = Rate 125 g/ha, 0 to 100 scale (0 no effect, 100 complete control)
[19] = Rate 250 g/ha, 0 to 100 scale (0 no effect, 100 complete control)
[20] = Rate 500 g/ha, 0 to 100 scale where 0 is no effect and 100 is complete control
[21] = Rate 500 g/ha, 0 to 100 scale, 0 no effect, 100 complete control

Cc1cccc(C)c1-n1c(=O)on(C(=O)N(c2ccc(F)cc2F)C(C)C)c1=O [Compound 28]
Plant response rating, Sourgrass ([1]; Rate 32 g/ha, 0 no injury, 100 complete control): 60
Sourgrass plant response rating ([1]; Rate 64 g/ha, 0 no injury, 100 complete control): 85
Sourgrass plant response rating ([1]; Rate 125 g/ha, 0 no injury, 100 complete control): 100
Plant response rating, Sourgrass ([1]; Rate 250 g/ha): 100

CCn1c(=O)on(C(=O)N(c2ccc(F)cc2)C(C)C)c1=O [Compound 107]
Plant response rating, Rape [2, 17]: 60
Plant response rating, Rape [2, 18]: 70
Plant response rating, Rape ([2]; Rate 250 g/ha, 0 to 100 scale): 100
Plant response rating, Chickweed [3, 17]: 80
Plant response rating, Chickweed [3, 18]: 50
Plant response rating, Chickweed ([3]; Rate 250 g/ha, 0 to 100 scale): 50
Plant response rating, Blk nightshade [4, 17]: 70
Plant response rating, Blk nightshade [4, 18]: 95
Plant response rating, Blk nightshade ([4]; Rate 250 g/ha, 0 to 100 scale): 95
Plant response rating, Kochia ([5]; Rate 62 g/ha, 0 to 100 scale): 5
Plant response rating, Kochia ([5]; Rate 125 g/ha, 0 to 100 scale): 20
Plant response rating, Kochia [5, 19]: 15
Plant response rating, Common poppy ([6]; Rate 62 g/ha, 0 to 100 scale): 0
Plant response rating, Comnion poppy ([6]; 0 to 100 scale): 0
Plant response rating, Common poppy [6, 19]: 5
Plant response rating, Annual bluegras ([7]; Rate 62 g/ha, 0 to 100 scale): 20
Plant response rating, Annual bluegras ([7]; Rate 125 g/ha, 0 to 100 scale): 5
Plant response rating, Annual bluegras [7, 19]: 50
Plant response rating, Spring Wheat ([8]; Rate 62 g/ha, 0 to 100 scale): 0
Plant response rating, Spring Wheat ([8]; Rate 125 g/ha, 0 to 100 scale): 5
Plant response rating, Spring Wheat [8, 19]: 10
Plant response rating, Sunflower [9, 17]: 20
Plant response rating, Sunflower [9, 18]: 30
Plant response rating, Sunflower ([9]; Rate 250 g/ha, 0 to 100 scale): 40
Plant response rating, Sugar beet ([10]; Rate 62 g/ha, 0 to 100 scale): 10
Plant response rating, Sugar beet ([10]; Rate 125 g/ha, 0 to 100 scale): 10
Plant response rating, Sugar beet [10, 19]: 40
Plant response rating Ladysthumb ([11]; Rate 140 g/ha): 0
Plant response rating Ladysthumb ([11]; Rate 560 g/ha): 30
Plant response rating, Spring Barley ([12]; Rate 62 g/ha, 0 to 100 scale): 20
Plant response rating, Spring Barley ([12]; Rate 125 g/ha, 0 to 100 scale): 0
Plant response rating, Spring Barley [12, 19]: 30
Plant response rating, Cocklebur ([13]; Rate 140 g/ha): 0
Plant response rating, Cocklebur ([13]; Rate 280 g/ha): 50
Plant response rating, Green foxtail ([14]; Rate 250 g/ha): 100
Plant response rating, Green foxtail ([14]; Rate 500 g/ha): 100
Plant response rating, Scentless chamo [15, 17]: 70
Plant response rating, Scentless chamo [15, 18]: 80
Plant response rating, Scentless chamo ([15]; Rate 250 g/ha, 0 to 100 scale): 90
Plant response rating, LS canarygrass ([16]; Rate 62 g/ha, 0 to 100 scale): 15
Plant response rating, LS canarygrass ([16]; Rate 125 g/ha, 0 to 100 scale): 20
Plant response rating, LS canarygrass [16, 19]: 60

CCn1c(=O)on(C(=O)N(c2ccc(F)cc2F)C(C)C)c1=O [Compound 116]
Plant response rating, Rape [2, 18]: 60
Plant response rating, Rape ([2]; Rate 250 g/ha, 0 to 100 scale): 100
Plant response rating, Rape [2, 20]: 100
Plant response rating, Chickweed [3, 18]: 100
Plant response rating, Chickweed ([3]; Rate 250 g/ha, 0 to 100 scale): 100
Plant response rating, Chickweed [3, 20]: 100
Plant response rating, Blk nightshade [4, 18]: 80
Plant response rating, Blk nightshade ([4]; Rate 250 g/ha, 0 to 100 scale): 90
Plant response rating, Blk nightshade [4, 20]: 100
Plant response rating, Kochia ([5]; Rate 62 g/ha, 0 to 100 scale): 0
Plant response rating, Kochia ([5]; Rate 125 g/ha, 0 to 100 scale): 0
Plant response rating, Kochia [5, 19]: 0
Plant response rating, Kochia [5, 21]: 0
Plant response rating, Common poppy ([6]; Rate 62 g/ha, 0 to 100 scale): 30
Plant response rating, Comnion poppy ([6]; 0 to 100 scale): 0
Plant response rating, Common poppy [6, 19]: 0
Plant response rating, Common poppy [6, 21]: 10
Plant response rating, Annual bluegras ([7]; Rate 62 g/ha, 0 to 100 scale): 100
Plant response rating, Annual bluegras ([7]; Rate 125 g/ha, 0 to 100 scale): 50
Plant response rating, Annual bluegras [7, 19]: 70
Plant response rating, Annual bluegras [7, 21]: 75
Plant response rating, Spring Wheat ([8]; Rate 62 g/ha, 0 to 100 scale): 5
Plant response rating, Spring Wheat ([8]; Rate 125 g/ha, 0 to 100 scale): 0
Plant response rating, Spring Wheat [8, 19]: 10
Plant response rating, Spring Wheat [8, 21]: 10
Plant response rating, Sunflower [9, 18]: 15
Plant response rating, Sunflower ([9]; Rate 250 g/ha, 0 to 100 scale): 40
Plant response rating, Sunflower [9, 20]: 70
Plant response rating, Sugar beet ([10]; Rate 62 g/ha, 0 to 100 scale): 0
Plant response rating, Sugar beet ([10]; Rate 125 g/ha, 0 to 100 scale): 0
Plant response rating, Sugar beet [10, 19]: 0
Plant response rating, Sugar beet [10, 21]: 0
Plant response rating, Spring Barley ([12]; Rate 62 g/ha, 0 to 100 scale): 5
Plant response rating, Spring Barley ([12]; Rate 125 g/ha, 0 to 100 scale): 0
Plant response rating, Spring Barley [12, 19]: 10
Plant response rating, Spring Barley [12, 21]: 0
Plant response rating, Cocklebur ([13]; Rate 140 g/ha): 0
Plant response rating, Cocklebur ([13]; Rate 560 g/ha): 0
Plant response rating, Cocklebur ([13]; Rate 1120 g/ha): 50
Plant response rating, LS canarygrass ([16]; Rate 62 g/ha, 0 to 100 scale): 10
Plant response rating, LS canarygrass ([16]; Rate 125 g/ha, 0 to 100 scale): 30
Plant response rating, LS canarygrass [16, 19]: 40
Plant response rating, LS canarygrass [16, 21]: 50
